Results from patent US11110070B2 (priority 2015, dated 2021).
“Also recorded” adds a separate entry of the source.

Columns and labels:
[1] = tested on: adult hippocampal neurogenesis; test: Doublecortin and Ki67 immunohistochemistry, dentate gyrus; format: in vivo, mice; conditions: for number of Ki67+ cells: ketamine vs saline (FIG. 6K)
Method: Mice were deeply anesthetized with ketamine (100 mg kg) and transcardially perfused with IX phosphate buffer saline (PBS), followed by chilled 4% paraformaldehyde (PFA)/IX PBS (A15), Brains were post-fixed overnight in 4% PFA at 4° C., then cryoprotected in 30% sucrose/1× PBS, and stored at 4° C. Serial coronal sections (35 μm) were cut through the entire hippocampus on a cryostat and stored in IX PBS with 0.1% NaN3. Doublecortin (DCX) immunohistochemistry was performed as previously described (A15). For DCX immunohistochemistry, sections were washed in 1× PBS containing 0.5% Triton and then quenched in 0.3% H2O2 in IX PBS/CH3OH (1:1) for 15 min at room temperature. Sections were blocked in 10% normal donkey serum in 1× PBS with 0.5% Triton X-100 for 2 h at room temperature. Incubation with primary antibody was performed at 4° C. overnight (goat anti-DCX, 1:500, Santa Cruz Biotechnology, Santa Cruz, Calif., #SC 8,066) in 1× PBS with 0.5% Triton X-100. Sections were then incubated with a biotinylated secondary antibody (donkey anti-goat; 1:250, Jackson lmmunoResearch, West Grove, Pa.) for 2 h at room temperature. Sections were treated with avidin-biotin-peroxidase complex (ABC Elite Kit, Vector Labs, Burlingame, Calif.) followed by 3,3′ diaminobenzidine as a substrate for staining (Vector, Burlingame, Calif.).
Ki67 immunohistochemistry was performed as previously described (A16). For Ki67 immunohistochemistry, sections were washed in 1× PBS containing 0.5% Triton, and then blocked in 10% normal donkey serum in 1× PBS with 0.5% Triton X-100 for 2 h at room temperature. Incubation with primary antibody was performed at 4° C. overnight (rabbit anti-Ki67, 1:100, Vector Laboratories. Burlingame, Calif., #VP-RM04) in 1× PBS with 0.5% Triton X-100. Sections were then incubated with a biotinylated secondary antibody (donkey anti-rabbit; 1:250, Jackson ImmunoResearch, West Grove, Pa.) for 2 h at room temperature. Sections were treated with avidin-biotin-peroxidase complex (ABC Elite Kit, Vector Labs, Burlingame, Calif.) followed by 3,3′ diaminobenzidine as a substrate for staining (Vector, Burlingame, Calif.).
An investigator blind to treatment used a Zeiss Axioplan-2 upright microscope (Oberkochen, Germany) to count cells bilaterally in the granule cell layer of the dentate gyms throughout the entire rostra-caudal axis of the hippocampus (HPC). Every sixth section throughout the entire extent of the HPC was included in the analysis. Cells were counted bilaterally using a 20× objective. The average cells per section are presented throughout the text.

military patients = conditions: McGhee et al., cited from earlier work
129S6/SvEvTac mice [2] = test: Novelty suppressed feeding (NSF) in SD experiments; format: in vivo
Method: Testing was performed as previously described (A13). Briefly, the testing apparatus consisted of a plastic box (50×50×20 cm). The floor was covered with approximately 2 cm of wooden bedding and the arena was brightly lit (1100-1200 lux). For 129S6/SvEv experiments, mice were food restricted for 12 h. For the C57BL/6N experiments, mice were food restricted for 24 h. All food was removed from the home cage. At the time of testing, a single pellet of food (regular chow) was placed on a white paper platform positioned in the center of the box. Each animal was placed in a corner of the box, and a stopwatch was immediately started. The latency of the mice to begin eating was recorded. Immediately after the latency was recorded, the food pellet was removed from the arena. The mice were then placed into a cage and the amount of food consumed in 5 min was measured (home cage consumption), followed by an assessment of post-restriction weight. We used the Kaplan-Meier survival analysis due to the lack of normal distribution of data. The Mantel-Cox log-rank test was used to evaluate differences between the experimental groups.

129S6/SvEvTac mice [3] = test: 3-shock CFC, extinction and reinstatement paradigm; format: in vivo
Method: A single injection of saline (0.9% NaCl) far ketamine (30 mg kg^−1) (Ketaset III, Ketamine HCl injection, Fort Dodge Animal Health, Forth Dodge, Iowa) was administered once during the course of each experiment.
A 3-shock CFC paradigm was administered as previously described (Drew et al., 2010; Denny et al., 2014). Mice were placed in the conditioning chamber and received 3 shocks 180, 240, and 300 s later (2 s, 0.75 mA) and were removed 15 s following the last shock. All sessions were scored for freezing using FreezeView2http://actimetrics.com/downloads/freezeframe/).
Extinction began 4 days after the initial 3-shock CFC procedure, or 4 days after the reinstatement procedure. Each group of mice was subjected to 2 extinction trials per day. Each extinction trial lasted 30 min, with an intertrial interval of at least 2 h. For each extinction trial, mice were placed in the same box used for CFC without receiving foot shocks. All trials were scored for freezing. The freezing presented throughout the text represents averaged freezing behavior for the first 3 min of each extinction trial.
Reinstatement took place in the same Coulbourn fear conditioning box, but with altered cues. A 1-shock CFC paradigm was administered as previously described (Drew et al., 2010; Denny et al., 2012; Denny et al., 2014), with the exception of two experiments in which the mice were administered 3 shocks.

[4] = ketamine 1 week before CFC, vs saline

CNC1(c2ccccc2Cl)CCCCC1=O (racemic) [ketamine, (RS)-2-(2-chlorophenyl)-2-(methylamino)cyclohexanone]
number of Ki67+ cells ([1]; Ctrl mice): increases | number of Ki67+ cells ([1]; SD mice): not in SD mice | number of Ki67 cells in the dentate gyrus ([1]; ketamine administered after SD): significantly increases the number of Ki671 cells | DCX levels ([1]; ketamine in post-SD design (FIG. 6L)): does not alter DCX levels | adult hippocampal neurogenesis (levels of doublecortin and Ki67) ([1]; prophylactic ketamine before SD): did not observe an effect | prevalence of PTSD (military patients; ketamine during an operation for burns vs no ketamine, 2008): decreased | incidence rate of PTSD (military patients; with and without intraoperative ketamine, 2014): comparable incidence rate of PTSD | latency to eat in NSF (129S6/SvEvTac mice [2]; Ctrl mice, ketamine in post-SD design, vs saline): decreased the latency to eat; also recorded: significantly decreased the latency to approach the food pellet | latency to eat in NSF (129S6/SvEvTac mice [2]; SD mice, ketamine after SD, vs SD-Sal): abolished; also recorded: did not differ from one another | latency to feed in NSF (129S6/SvEvTac mice [2]; ketamine 30 mg kg^−1 before SD): no significant effect | freezing during 3-shock CFC training (129S6/SvEvTac mice [3]; ketamine 30 mg kg^−1 1 week before CFC, vs saline): comparable levels of freezing | fear response (freezing) during CFC training (129S6/SvEvTac mice [3]; ketamine 1 month before CFC): did not result in a decreased fear response | freezing behavior during extinction (129S6/SvEvTac mice [3]; ketamine 1 month before CFC): did not alter freezing behavior during extinction | fear, first trial of extinction vs first trial of re-extinction (E1 vs. E9) (129S6/SvEvTac mice [3]; [4]): significantly decreased levels of fear | freezing during the first extinction exposure (129S6/SvEvTac mice [3]; [4]): significantly less freezing behavior | fear expression during extinction training (129S6/SvEvTac mice [3]; ketamine 1 week following CFC, 1 week prior to extinction): did not alter fear expression during extinction training; also recorded: equal levels of freezing behavior during all extinction trials | subsequent fear expression (reinstatement, secondary extinction) (129S6/SvEvTac mice [3]; ketamine 1 week prior to 1-shock reinstatement (24 h after the last extinction trial)): did not alter subsequent fear expression; also recorded: equal levels of freezing behavior during reinstatement and during secondary extinction trials | fear expression (reinstatement, secondary extinction) (129S6/SvEvTac mice [3]; ketamine 1 week prior to 3-shock reinstatement): did not alter fear expression; also recorded: comparable levels of fear behavior | fear expression during the first re-exposure (129S6/SvEvTac mice [3]; ketamine 1 h after 3-shock reinstatement): buffered fear expression during the first re-exposure | freezing throughout secondary extinction (129S6/SvEvTac mice [3]; ketamine 1 h after 3-shock reinstatement, vs saline): transiently decreased freezing throughout extinction; also recorded: decreased fear | freezing during extinction (129S6/SvEvTac mice [3]; ketamine 1 h before CFC): froze comparably during extinction; also recorded: equal levels of freezing behavior during almost all extinction trials | subsequent fear expression (secondary extinction trials) (129S6/SvEvTac mice [3]; ketamine 1 h following 1-shock reinstatement): did not alter subsequent fear expression; also recorded: comparable levels of fear behavior during secondary extinction trials | fear expression during extinction (129S6/SvEvTac mice [3]; ketamine 1 h following 3-shock CFC training): did not alter fear expression during extinction; also recorded: equal levels of freezing behavior during all extinction trials | fear expression during extinction training (129S6/SvEvTac mice [3]; ketamine 1 h prior to extinction): did not alter fear expression during extinction training; also recorded: equal levels of freezing behavior during all extinction trials | freezing behavior during extinction (129S6/SvEvTac mice [3]; ketamine 24 h before CFC): did not alter | subsequent fear expression (secondary extinction trials) (129S6/SvEvTac mice [3]; ketamine 24 h following 3-shock reinstatement): did not alter subsequent fear expression; also recorded: comparable levels of freezing behavior
